Assay results from ChEMBL document CHEMBL4477256, “Newly synthesized bis-benzimidazole compound 8 induces apoptosis, autophagy and reactive oxygen species generation in HeLa cells” (Bioorg Med Chem Lett, 2016).
The source made the active and inactive calls. The calls are words filed in the database; no cut-off is given here.

Assays:
Type in all cases: functional, cell-based
[1] = tested on: HeLa; experiment: Induction of autophagy in human HeLa cells after 24 hrs in presence of 3MA by MDC staining-based flow cytometry
[2] = tested on: HeLa; experiment: Induction of apoptosis in human HeLa cells assessed as increase in subG0/G1 ratio in presence of NAC by PI staining-based flow cytometry
[3] = tested on: HeLa; experiment: Induction ROS generation in human HeLa cells in presence of 3MA by flow cytometry
[4] = tested on: HeLa; experiment: Induction of autophagy in human HeLa cells assessed as conversion of LC3 1 to LC3 2 at 5 to 20 uM after 24 hrs by Western blot analysis
[5] = tested on: HeLa; experiment: Induction of apoptosis in human HeLa cells assessed as formation of apoptotic bodies at 10 uM after 24 hrs by phase contrast microscopic analysis
[6] = tested on: HeLa; experiment: Induction of ROS generation in human HeLa cells at up to 5 uM after 24 hrs by H2DCF-DA staining-based flow cytometry
[7] = tested on: HeLa; experiment: Upregulation of Fas in human HeLa cells at 5 to 20 uM after 24 hrs by Western blot analysis
[8] = tested on: HeLa; experiment: Induction of autophagy in human HeLa cells in presence of NAC by MDC staining-based flow cytometry
[9] = tested on: HeLa; experiment: Induction of autophagy in human HeLa cells at 10 uM after 24 hrs by MDC staining-based fluorescence microscopic analysis
[10] = tested on: HeLa; experiment: Upregulation of beclin 1 in human HeLa cells at 5 to 20 uM after 24 hrs by Western blot analysis
[11] = tested on: HeLa; experiment: Induction of apoptosis in human HeLa cells assessed as increase in subG0/G1 ratio preincubated with 3MA for 1 hr followed by compound treatment at 10 uM for 24 hrs by PI staining-based flow cytometry
[12] = tested on: HeLa; experiment: Cytotoxicity against human HeLa cells assessed as inhibition of cell growth at 5 to 20 uM by MTT assay; details: TDE = time-dependent effect
[13] = tested on: HeLa; experiment: Induction ROS generation in human HeLa cells in presence of ZVAD by flow cytometry
[14] = tested on: HeLa; experiment: Cytotoxicity against human HeLa cells assessed as inhibition of cell growth after 24 hrs in presence of 3MA by MTT assay
[15] = tested on: HeLa; experiment: Upregulation of beclin 1 in human HeLa cells at 5 to 20 uM after 24 hrs in presence of 3MA by Western blot analysis
[16] = tested on: HeLa; experiment: Upregulation of FasL in human HeLa cells at 5 to 20 uM after 24 hrs by Western blot analysis
[17] = tested on: HeLa; experiment: Induction of apoptosis in human HeLa cells assessed as reduction in mitochondrial membrane potential at 5 to 20 uM after 24 hrs by Rhodamine123 staining-based flow cytometry
[18] = tested on: HeLa; experiment: Induction of apoptosis in human HeLa cells assessed as increase in subG0/G1 ratio after 24 hrs by PI staining-based flow cytometry
[19] = tested on: HeLa; experiment: Upregulation of caspase-3 in human HeLa cells at 5 to 20 uM after 24 hrs by Western blot analysis
[20] = tested on: HeLa; experiment: Induction of apoptosis in human HeLa cells assessed as nuclear fragmentation at 10 uM after 24 hrs by AO staining-based microscopic analysis
[21] = tested on: HeLa; experiment: Induction of apoptosis in human HeLa cells assessed as increase in Bax/Bcl-2 ratio at 5 to 20 uM after 24 hrs by Western blot analysis
[22] = tested on: HeLa; experiment: Induction of ROS generation in human HeLa cells at 10 to 20 uM after 24 hrs by H2DCF-DA staining-based flow cytometry
[23] = tested on: HeLa; experiment: Induction of apoptosis in human HeLa cells assessed as chromatin condensation at 10 uM after 24 hrs by AO staining-based microscopic analysis
[24] = tested on: HeLa; experiment: Induction of apoptosis in human HeLa cells assessed as increase in cytochrome c release from mitochondria to cytosol at 5 to 20 uM after 24 hrs by Western blot analysis
[25] = tested on: HeLa; experiment: Cytotoxicity against human HeLa cells assessed as inhibition of cell growth after 12 to 48 hrs by MTT assay
[26] = tested on: HeLa; experiment: Induction of autophagy in human HeLa cells preincubated at 10 uM in presence of ZVAD for 24 hrs by MDC staining-based flow cytometry
[27] = tested on: HeLa; experiment: Upregulation of caspase-8 in human HeLa cells at 5 to 20 uM after 24 hrs by Western blot analysis
[28] = tested on: HeLa; experiment: Induction of ROS generation in human HeLa cells at 10 uM in presence of NAC by H2DCF-DA staining-based flow cytometry
[29] = tested on: HeLa; experiment: Induction of autophagy in human HeLa cells assessed as conversion of LC3 1 to LC3 2 at 5 to 20 uM after 24 hrs in presence of 3MA by Western blot analysis
[30] = tested on: HeLa; experiment: Induction of autophagy in human HeLa cells after 24 hrs by MDC staining-based flow cytometry
[31] = tested on: HeLa; experiment: Induction of apoptosis in human HeLa cells assessed as increase in subG0/G1 ratio at 10 uM after 24 hrs in presence of ZVAD by PI staining-based flow cytometry
[32] = tested on: HeLa; experiment: Upregulation of FADD in human HeLa cells at 5 to 20 uM after 24 hrs by Western blot analysis

## COc1ccc(-c2nc3cc(Oc4ccc5[nH]c(-c6ccc(OC)cc6)nc5c4)ccc3[nH]2)cc1
[1]
  Activity: inactive
[2]
  Activity: inactive
[3]
  Activity: inactive
[4]
  Activity: Active
[5]
  Activity: Active
[6]
  Activity: Active
[7]
  Activity: Active
[8]
  Activity: inactive
[9]
  Activity: Active
[10]
  Activity: Active
[11]
  Activity: inactive
[12]
  inhibition: Tde
[13]
  Activity: inactive
[14]
  Activity: inactive
[15]
  Activity: inactive
[16]
  Activity: Active
[17]
  Activity: Active
[18]
  Activity: Dose-dependent effect
[19]
  Activity: Active
[20]
  Activity: Active
[21]
  Activity: Active
[22]
  Activity: inactive
[23]
  Activity: Active
[24]
  Activity: Active
[25]
  Activity: Dose-dependent effect
[26]
  Activity: Active
[27]
  Activity: Active
[28]
  Activity: inactive
[29]
  Activity: inactive
[30]
  Activity: Dose-dependent effect
[31]
  Activity: inactive
[32]
  Activity: Active
